In publication PMC4830886, “Extended evaluation on the ES-D3 cell differentiation assay combined with the BeWo transport model, to predict relative developmental toxicity of triazole compounds” (Archives of Toxicology, 2015):

Legend:
[1] = in vitro BeWo transport model (placental transfer); details: human
Procedure: (§1) To study placental transfer of test compounds, BeWo transport experiments were performed as described previously (Li et al. [2013]). Briefly, BeWo b30 cells (passages 27–45) were cultured in DMEM (Zwijndrecht, The Netherlands), supplemented with 10 % (v/v) heat-inactivated FCS (HyClone-Perbio, Etten-Leur, The Netherlands), 10,000 U/ml penicillin, 10 mg/ml streptomycin and 2 mM L-glutamine. The cells were seeded at a density of 1 × 10^5 cells/cm^2 on transwell® polycarbonate membranes (12 mm diameter, 0.4 μm pore size) (VWR International BV, Amsterdam, The Netherlands) coated with human placental collagen. The medium (0.5-ml apical compartment, 1.5-ml basolateral compartment) was replaced daily. At day 6 postseeding, the BeWo b30 cell layers were used for transport experiments. The barrier-forming capacity of the BeWo cell layers was evaluated by measuring the transepithelial electrical resistance (TEER) of the cell monolayer using a Millicell ERS-2 Volt-Ohm Meter (Millipore, USA) at day 6 postseeding as described previously (Li et al. [2013]). Only the cell layers showing TEER values between 80 and 100 Ω cm^2 were used for transport experiments.
(§2) Transport experiments were initiated by adding 0.5 ml of transport buffer Hank’s balanced salt solution (HBSS, Invitrogen, Breda, The Netherlands) containing the test compound, being 0594, 0595, 0596, 0599, 0600 and 0618, dissolved in DMSO (final solvent concentration 0.5 % DMSO), at concentration of 50 μM, to the apical compartment and 1.5 ml transport buffer to the basolateral compartment. Subsequently, the plate was incubated in a humidified atmosphere with 5 % CO2 at 37 °C. After 15, 30, 60 and 90 min, a sample of 0.2 ml was taken from the basolateral compartment and replaced by an equal volume of transport buffer. At the end of each experiment, a 0.2-ml sample was also taken from the apical compartment. Subsequently, the filters with the BeWo b30 cell layers were washed three times with PBS, cut out of the insert, dissolved in 0.25 ml 65 % (v/v) methanol and sonificated for 15 min in a Bandelin Sonorex RK100 (Berlin, Germany) in order to determine the amount of compound accumulated in the cells. After each experiment, mass balance calculations were performed. In each transport study, amoxicillin and antipyrine were included as control and reference compounds. Amoxicillin transport was included to assess for monolayer integrity since it is a compound known to be transported only to a limited extent across the placenta, whereas antipyrine was included as a control for optimal transport and a reference compound to enable calculation of relative transport rates (Li et al. [2013]). The transport of the six test compounds, as well as the reference compounds amoxicillin and antipyrine, through the permeable membrane of the transwell filter in the absence of BeWo cells was determined as well. […] For each test compound, three independent experiments were performed, with three technical replicates per experiment.
(§3) Samples were analyzed using high-performance liquid chromatography (HPLC) to quantify the amount of test compound in order to determine the transport rate and to perform mass balance calculations. The HPLC system used consisted of a Waters (Milford, MA) 600 controller and a 600 pump, equipped with a photodiode array detector set to record absorption of wavelengths between 200 and 400 nm. A Waters 717 plus autosampler was used for sample injection. The temperature of the autosampler was kept at 7 °C.
(§4) For analysis of all compounds, 50 μl sample was injected to a C18 5 μm reverse-phase column (150 mm × 4.6 mm I.D.) with a guard column (7.5 mm × 4.6 mm I.D.) (Alltech, Bergen op Zoom, The Netherlands). The mobile phase used for analysis of all the test compounds consisted of (A) 0.1 % trifluoroacetic acid in nanopure water and (B) HPLC-grade acetonitrile. Elution was at a flow rate of 0.8 ml/min, starting at 22 % B with a linear increase to 100 % B in 8 min.

BeWo b30 cell layers = test: in vitro BeWo transport model (placental transfer)
Procedure: as §1, §2, §3, §4

| Intracellular accumulation (% of added amount) (BeWo b30 cell layers; BeWo cells, 50 μM (25 nmol) apical, at 90 min) | SMILES | Papp at 30 min, 50 μM [1] [×10⁻⁶ cm/s] | Intracellular accumulation (% of added amount) (BeWo b30 cell layers; human, 90 min, 50 μM) | Relative Papp value (BeWo b30 cell layers; human, not told, 50 μM) |
| --- | --- | --- | --- | --- |
| 0 % of added amount | CC1(C)S[C@@H]2[C@H](NC(=O)[C@H](N)c3ccc(O)cc3)C(=O)N2[C@H]1C(=O)O [Amoxicillin, amoxicillin, reference compound] | 6.5 ± 0.2 |  |  |
|  | Cc1cc(=O)n(-c2ccccc2)n1C [Antipyrine, antipyrine, reference compound] | 38.9 ± 3 | 0 % of added amount | 1.00 |
